This is an account of results in patent US12391696B2, “Pyrrolopyrazole derivatives, preparation method thereof and application thereof in medicine” (SHANGHAI MEDICILON INC., priority 2019, dated 2025).

This experiment has as its target H+/K+ ATPase (Oryctolagus cuniculus (Rabbit), UniProt P27112). Briefly: Determination of compounds' inhibition of H+/K+ ATPase enzyme activity. It is filed as biochemical. The settings on record: H+/K+ ATPase extracted from rabbit stomach; malachite green detection, 500 μM ATP, pH 6.5. From the text:
Determination of Compounds' Inhibition of H^+/K^+ ATPase Enzyme Activity
The following experiment is used to determine the inhibitory effect of the compound of the present invention on the H+/K+ATPase enzyme activity.
• Plate reader: SpectraMax M5(MD) • Malachite Green (Sigma Aldrich, 213020-25G) • Ammonium molybdate (Sigma Aldrich, 277908-20G) • ATP (Sigma Aldrich, A1852-1VL). 2. Buffer Preparation
Enzyme working solution: titrating the enzyme, diluting the enzyme with buffer 1, and during the reaction, taking 5 μl of the diluted solution into 50 μl reaction system.
ATP solution: 100 mM ATP was diluted to 5 mM with no K+buffer, and 5 μl of the diluted solution was added to the 50 μl reaction system, that is, the final concentration of ATP was 500 μM.
MLG color development liquid: 0.12% MLG, 7.5% ammonium molybdate, 11% Tween-20 was mixed as 100:25:2, and adding 15 μl of the mixture into each well during detection.
Buffer 1: 50 mM Tris-HCl pH 6.5, 5 mM magnesium chloride (magnesium chloride), 10 μM valinomycin (valinomycin).
Buffer 2: 50 mM Tris-HCl pH 6.5, 5 mM magnesium chloride (magnesium chloride), 10 μM valinomycin (valinomycin), 20 mM KCl.
Homogenization buffer: 10 mmol/L Tris-HCl, pH 6.8, 0.25M sucrose (sucrose), 1 mmol/LEDTA
7.5% Ficoll layering solution: homogenization buffer+7.5% (W/W) (Ficoll 400).
3.1. H^+/K^+ ATPase Enzyme Extraction
(1) The stomach tissue of the rabbit was separated, and the blood was washed with tap water, food residue.
(2) The fundus portion was thoroughly washed with pre-cooled NaCl solution to remove surface mucus.
(3) The stripped mucosa was filled into a sample bag or a 50 ml centrifuge tube, and quickly freezing in a liquid nitrogen tank.
(4) The tissue was removed, minced with surgical scissors, and a pre-cooled homogenization buffer (4 ml/g tissue) was added and homogenized in a tissue homogenizer for 2 to 10 minutes.
(5) After homogenization, if there were larger tissue particles, they could be removed by centrifugation (600 g, 10 min), and then the supernatant was transferred to a clean centrifuge tube. After centrifugation at 20000 g for 30 minutes, then the supernatant was transferred to a clean centrifuge tube at 100000 g for 90 minutes and the precipitate was collected.
(6) Resuspending the precipitate with homogenization buffer, blowing uniformly, adding 7.5% Ficoll layering solution at equal ratio, centrifuging at 100000 g for 90 minutes, and collecting the precipitate.
(7) Resuspending the precipitate with homogenization buffer, blowing uniformly, and the protein concentration was measured by Bradford. Freezing in tubes at −80° C. for later use.
3.2. H^+/K^+ ATPase Activity Experiment
(1) Adding 35 μl of reaction buffer to each experimental well, and then added 35 μl of buffer 1.
(2) Adding 5 μl buffer 1 containing 10% DMSO to the whole enzyme and buffer well.
(3) Adding 5 μl of 10× compound working solution to the compound well and mixing well.
(4) Adding 5 μl of buffer 1 to the buffer well.
(5) Adding 5 μl of 10× enzyme working solution to the remaining wells, mixing and incubating at 37° C. for 30 minutes
(6) Adding 5 μl of 10× ATP working solution to all experimental wells, and incubating at 37° C. for 20 min.
(7) Adding 15 μl MLG chromogenic solution to all experimental wells, and uniformly mixing and incubating at room temperature for 5-30 min.
(8) The reading number of 620 nm was detected by an M5 instrument. […]

The IC50 is the concentration needed to halve the response being measured.

Sequence of H+/K+ ATPase (P27112 whole entry): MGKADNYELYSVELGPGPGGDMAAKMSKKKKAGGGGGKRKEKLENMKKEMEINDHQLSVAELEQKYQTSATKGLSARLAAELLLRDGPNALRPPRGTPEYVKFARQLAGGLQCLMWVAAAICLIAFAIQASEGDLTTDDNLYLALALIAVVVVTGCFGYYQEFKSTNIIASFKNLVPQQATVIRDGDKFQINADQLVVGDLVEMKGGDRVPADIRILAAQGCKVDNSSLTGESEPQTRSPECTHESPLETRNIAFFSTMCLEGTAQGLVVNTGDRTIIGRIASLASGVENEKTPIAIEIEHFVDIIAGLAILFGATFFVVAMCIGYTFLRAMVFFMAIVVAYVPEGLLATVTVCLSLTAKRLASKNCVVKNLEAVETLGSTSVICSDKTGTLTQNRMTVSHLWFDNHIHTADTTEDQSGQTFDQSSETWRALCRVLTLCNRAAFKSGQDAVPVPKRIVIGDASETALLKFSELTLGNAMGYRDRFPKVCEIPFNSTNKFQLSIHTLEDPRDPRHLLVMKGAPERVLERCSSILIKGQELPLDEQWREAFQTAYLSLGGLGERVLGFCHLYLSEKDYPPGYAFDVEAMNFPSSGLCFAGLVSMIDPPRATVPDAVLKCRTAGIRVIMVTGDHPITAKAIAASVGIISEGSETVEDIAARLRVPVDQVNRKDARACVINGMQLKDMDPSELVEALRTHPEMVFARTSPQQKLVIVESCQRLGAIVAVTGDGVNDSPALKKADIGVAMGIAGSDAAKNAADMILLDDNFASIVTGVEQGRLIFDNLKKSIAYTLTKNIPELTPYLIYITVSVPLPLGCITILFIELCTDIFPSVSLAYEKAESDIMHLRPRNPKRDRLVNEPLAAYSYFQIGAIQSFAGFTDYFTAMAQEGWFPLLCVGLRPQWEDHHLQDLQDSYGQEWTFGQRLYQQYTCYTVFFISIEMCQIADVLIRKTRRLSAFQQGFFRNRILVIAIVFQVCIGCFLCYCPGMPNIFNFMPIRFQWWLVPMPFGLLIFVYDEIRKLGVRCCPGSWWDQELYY
Sequence of H+/K+ ATPase (P18597 whole entry partner): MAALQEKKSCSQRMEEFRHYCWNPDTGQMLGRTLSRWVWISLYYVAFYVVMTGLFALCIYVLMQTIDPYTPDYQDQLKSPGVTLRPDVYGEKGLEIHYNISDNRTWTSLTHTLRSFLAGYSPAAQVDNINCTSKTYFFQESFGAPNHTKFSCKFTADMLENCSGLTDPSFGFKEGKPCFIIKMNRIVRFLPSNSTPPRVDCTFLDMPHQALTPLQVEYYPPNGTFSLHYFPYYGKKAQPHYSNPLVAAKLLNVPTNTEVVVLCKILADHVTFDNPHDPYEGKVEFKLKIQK

As to `CN1Cc2nn(Cc3cccc(N4CCCC4)c3)c(-c3ccccc3F)c2C1` [Example 3, 3-(2-fluorophenyl)-5-methyl-2-(3-(pyrrolidin-1-yl)benzyl)-2,4,5,6-tetrahydropyrrolo[3,4-c]pyrazole], the IC50 was found to be 1.86 µM.
For the compound `CN1CCN(c2cccc(Cn3nc4c(c3-c3ccccc3F)CN(C)C4)c2)CC1` [Example 4, 3-(2-fluorophenyl)-5-methyl-2-(3-(4-methylpiperazin-1-yl)benzyl)-2,4,5,6-tetrahydro pyrrolo [3,4-c] pyrazole], inhibition was half-maximal at 0.58 µM (IC50).
`CN1Cc2nn(Cc3cccc(N4CCC(N5CCCCC5)CC4)c3)c(-c3ccccc3F)c2C1` [Example 5, 2-(3-([1,4′-Bipiperidine]-1′-yl)benzyl)-3-(2-fluorophenyl)-5-methyl-2,4,5,6-tetrahydropyrrolo[3,4-c]pyrazole] registered an IC50 of 2.58 µM.
In the case of `CN1Cc2nn(Cc3cccc(N4CCCCC4)c3)c(-c3ccccc3F)c2C1` [Example 2, 3-(2-fluorophenyl)-5-methyl-2-(3-(piperidin-1-yl)benzyl)-2,4,5,6-tetrahydropyrrolo[3,4-c]pyrazole], the midpoint of inhibition, the IC50, lay at 0.431 µM.
In turn, `CN1Cc2nn(Cc3cccc(N4CCOCC4)c3)c(-c3ccccc3F)c2C1` [Example 1, 4-(3-((3-(2-fluorophenyl)-5-methyl-5,6-dihydropyrrolo [3,4-c]pyrazole-2(4H)-yl)methyl)phenyl) morpholine] showed an IC50 of 0.411 µM.
